This note sets out measurements from PMC5963591, “Bitopic Binding Mode of an M1 Muscarinic Acetylcholine Receptor Agonist Associated with Adverse Clinical Trial Outcomes” (Molecular Pharmacology, 2018).

Molecules are shown by their SMILES.

In experiment [1] the target is T1, M3 mAChR (isolated rat ileum) (Rattus norvegicus, UniProt P08483).
T1 construct: from tissue; host or cells: ileum of adult Wistar rats
The experiment in a line: Isolated rat ileum contraction. As to conditions: single experiment. How it is done: (§1) Adult Wistar rats were humanely euthanized and the left atria and the ileum were placed in an organ bath containing oxygenated Tyrode solution. Measurement of negative inotropic responses in atria or contraction of ileum was performed as described by [Lambrecht et al. (1989)]. For atrial responses, ligands were administered for 5 minutes at 32°C in McEwen’s buffer (pH 7.4) in a bath volume of 10 ml. […] For rat ileum experiments, ligands were administered for 5 minutes at 32°C in Krebs’ buffer (pH 7.4) in a bath volume of 10 ml. Contraction of ileum as a percentage of methacholine-induced contraction was measured, and antagonistic effects were measured by inhibition of methacholine-induced responses.

For experiment [2], the target named is [35S]-GTPγS Gαq binding in rat cortex membranes. As to the kind of experiment: Native tissue GTPγ[35S] binding assay (Gαq antibody capture). It is filed as biochemical. How it is done:
GTPɣ-[^35S] ([^35S]ɣ[guanosine-5′-O-(3-[^35S]thio)triphosphate] binding in rat membranes was determined in triplicate using an antibody capture technique in 96-well plate format (DeLapp et al., 1999). Native rat membranes were prepared as follows. All procedures were performed at 4°C. Ten to fifteen milliliters of sucrose buffer (10 mM HEPES, 1 mM EGTA, 1 mM dithiothreitol, 10% sucrose, and one tablet/50 ml Complete Protease Inhibitor Cocktail, pH 7.4) was added to each tissue sample and homogenized for 10 strokes using an electric IKA RW20 homogenizer (800 rpm) (IKA, Staufen, Germany) with glass homogenizer. The homogenate was centrifuged at 1000g for 10 minutes at 4°C and the supernatant collected. The pellet was rehomogenized and centrifuged again as above and the supernatant pooled and centrifuged at 11,000g for 20 minutes at 4°C. The resulting pellet was suspended in 40 ml final storage buffer (10 mM HEPES, 1 mM EGTA, 1 mM MgCl2, and 1 mM dithiothreitol, pH 7.4) and centrifuged at 27,000g for 20 minutes at 4°C. The supernatant was removed and the final pellet was suspended in 2 ml final storage buffer. The protein concentration was measured using the Bradford method (Coomassie Plus, Bio-Rad protein assay kit; Bio-Rad, Hercules, CA) with bovine gamma globulin standards. […] Plates were counted for 1 minute/well using a Wallac MicroBeta Trilux scintillation counter (PerkinElmer). […]
Background: GTPγS is a poorly hydrolysed GTP analogue; its binding reports G protein activation.

The target of experiment [3] is T2, M2 mAChR (isolated rat atria) (Rattus norvegicus, UniProt P10980).
T2 construct: from tissue; host or cells: left atria of adult Wistar rats
T2 sequence (P10980 1-466): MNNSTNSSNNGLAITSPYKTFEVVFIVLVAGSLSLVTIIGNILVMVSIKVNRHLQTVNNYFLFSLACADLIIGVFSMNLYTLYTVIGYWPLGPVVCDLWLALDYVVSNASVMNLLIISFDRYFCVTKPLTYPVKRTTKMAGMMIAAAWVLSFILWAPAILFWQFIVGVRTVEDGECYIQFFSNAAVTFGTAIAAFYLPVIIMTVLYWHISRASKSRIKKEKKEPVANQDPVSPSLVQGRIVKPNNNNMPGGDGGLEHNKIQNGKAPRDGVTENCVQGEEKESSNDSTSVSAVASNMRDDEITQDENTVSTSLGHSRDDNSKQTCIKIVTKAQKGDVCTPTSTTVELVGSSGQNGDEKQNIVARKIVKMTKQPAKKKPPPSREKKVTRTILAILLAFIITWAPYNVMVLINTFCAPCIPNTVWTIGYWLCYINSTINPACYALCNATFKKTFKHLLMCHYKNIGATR
The experiment in a line: Isolated rat atria, negative inotropic response. Particulars: single experiment. How it is done: as §1

The subject of a further experiment is C57Bl/6J mice. The experiment in a line: Contextual fear conditioning, scopolamine-induced deficit. It is filed as in vivo, mouse. Particulars: escalating i.p. doses with scopolamine […]. How it is done: C57Bl/6J male mice (aged 8–12 weeks) were acclimatized to the behavioral testing suite at least 2 hours prior to the test. […] Mice were placed in the conditioning chamber (ANY-maze Fear Conditioning System; Stoelting, Dublin, Ireland); after a 2-minute adaptation period, they received three tone/foot shock pairings where the foot shock (unconditioned stimulus; 2 seconds; 0.4 mA) always co-terminated with a tone (conditioned stimulus; 2.8 kH; 85 dB; 30 seconds). The conditioned stimulus–unconditioned stimulus pairings were separated by 1-minute intervals. After the mice completed training, they remained in the conditioning chamber for 1 minute and were then returned to their home cages. The next day, the mice were placed back in the conditioning chamber, and time spent immobile was recorded for 3 minutes to assess context-dependent learning. Data were analyzed using ANY-maze software (Stoelting).

T1 sequence (P08483 whole entry): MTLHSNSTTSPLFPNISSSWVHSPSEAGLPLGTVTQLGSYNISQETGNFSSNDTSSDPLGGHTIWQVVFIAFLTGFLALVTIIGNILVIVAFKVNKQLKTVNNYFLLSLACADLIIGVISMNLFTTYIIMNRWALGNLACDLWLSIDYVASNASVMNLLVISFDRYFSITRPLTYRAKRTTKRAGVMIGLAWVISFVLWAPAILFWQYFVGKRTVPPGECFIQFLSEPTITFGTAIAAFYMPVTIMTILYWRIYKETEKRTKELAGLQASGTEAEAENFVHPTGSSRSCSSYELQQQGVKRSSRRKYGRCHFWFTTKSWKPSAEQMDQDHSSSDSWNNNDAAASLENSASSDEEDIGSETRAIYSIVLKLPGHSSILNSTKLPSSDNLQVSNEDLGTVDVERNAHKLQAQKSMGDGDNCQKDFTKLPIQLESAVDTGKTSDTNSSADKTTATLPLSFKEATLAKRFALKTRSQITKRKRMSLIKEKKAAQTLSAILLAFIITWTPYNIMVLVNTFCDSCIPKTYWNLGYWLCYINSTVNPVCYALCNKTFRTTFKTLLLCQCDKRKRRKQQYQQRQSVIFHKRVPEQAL

The term EC50 denotes the concentration needed to bring the measured effect to its halfway point. Higher therefore signals a less potent agent. As a reminder, the IC50 is the midpoint of a concentration-inhibition curve. For the molecule `Cc1cc(F)c2[nH]c(=O)n(C3CCN(C4CCOCC4)CC3)c2c1` [GSK1034702, 7-fluoro-5-methyl-3-[1-(oxan-4-yl)piperidin-4-yl]-1H-benzimidazol-2-one], the EC50 in experiment [1] came out at 7 µM. The “rat ileum contraction, % of maximal methacholine-induced contraction” value in experiment [1] was “approximately 50%”. Also, the IC50 amounted to 46 µM in experiment [1] (read-out: IC50, inhibition of methacholine-induced contraction of rat ileum) and 8 µM in experiment [3] (methacholine 1 μM, read-out: IC50, inhibition of methacholine-induced responses in rat atria). Further, the “pEC50, [^35S]-GTPγS Gαq binding” value in experiment [2] stood at 6.7 ± 0.1. Moreover, the “[^35S]-GTPγS Gαq binding, maximum relative to oxotremorine-M” value in experiment [2] (% of maximum elicited by oxotremorine-M) is “approximately 37%”. Also, the “maximal negative inotropic response in rat atria” value in experiment [3] (relative to methacholine) was “maximal response equivalent to that of methacholine”. Besides, the “potency, negative inotropic response in rat atria” value in experiment [3] is on record as “micromolar potency”. Moreover, in the experiment on C57Bl/6J mice, the “shape of the dose response on learning and memory” value is listed as “bell shaped”.
